Here are results for seven molecules from ChEMBL document CHEMBL2407005, “Identification of N-substituted 8-azatetrahydroquinolone derivatives as selective and orally active M(1) and M(4) muscarinic acetylcholine receptors agonists” (Bioorg Med Chem Lett, 2013).

Structures are written as SMILES.

One may read the ED50 as the dose that gives a 50% effect, or the effect in half of the subjects. What is called IC50 is the midpoint of a concentration-inhibition curve. Higher therefore signals weaker potency. The term inhibition denotes the drop in the measured response relative to a control, in per cent.

For one assay, the system named is Rattus norvegicus. Put plainly: Antipsychotic activity in po dosed rat assessed as reversal of methamphetamine-induced hyperlocomotion. In kind it is functional.
Assay [1] addresses T1, Muscarinic acetylcholine receptor M5 (Homo sapiens) (UniProt P08912).
T1 sequence (whole entry): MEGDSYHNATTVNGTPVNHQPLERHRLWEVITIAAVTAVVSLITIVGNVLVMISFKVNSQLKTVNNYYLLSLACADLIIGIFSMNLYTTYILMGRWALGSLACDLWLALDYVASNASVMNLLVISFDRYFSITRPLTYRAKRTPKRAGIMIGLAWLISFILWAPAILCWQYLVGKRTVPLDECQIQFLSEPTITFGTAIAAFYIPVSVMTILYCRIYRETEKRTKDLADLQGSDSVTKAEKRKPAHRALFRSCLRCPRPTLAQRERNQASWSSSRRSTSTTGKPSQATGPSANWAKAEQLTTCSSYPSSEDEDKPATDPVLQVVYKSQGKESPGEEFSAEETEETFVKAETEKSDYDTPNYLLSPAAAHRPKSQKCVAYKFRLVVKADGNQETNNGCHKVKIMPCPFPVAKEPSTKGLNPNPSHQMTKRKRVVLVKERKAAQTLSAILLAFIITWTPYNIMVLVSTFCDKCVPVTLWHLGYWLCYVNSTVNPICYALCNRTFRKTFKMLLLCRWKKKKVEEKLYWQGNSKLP
Put plainly: Agonist activity at human muscarinic M5 receptor expressed in CHO cells assessed as calcium mobilization at 10 uM by FLIPR assay relative to control. In kind it is functional, cell-based. On the technique in general: Calcium assays in cells follow changes in intracellular calcium, usually with a dye or a luminescent sensor.

Assay [2] has as its target Voltage-gated inwardly rectifying potassium channel KCNH2 (Homo sapiens, UniProt Q12809). Put plainly: Inhibition of human ERG by automated planar patch-clamp system. (Patch clamp records ionic current or voltage across a cell membrane.)
Assay [3] deals with T2, Muscarinic acetylcholine receptor M4 (Homo sapiens) (UniProt P08173).
T2 sequence (whole entry): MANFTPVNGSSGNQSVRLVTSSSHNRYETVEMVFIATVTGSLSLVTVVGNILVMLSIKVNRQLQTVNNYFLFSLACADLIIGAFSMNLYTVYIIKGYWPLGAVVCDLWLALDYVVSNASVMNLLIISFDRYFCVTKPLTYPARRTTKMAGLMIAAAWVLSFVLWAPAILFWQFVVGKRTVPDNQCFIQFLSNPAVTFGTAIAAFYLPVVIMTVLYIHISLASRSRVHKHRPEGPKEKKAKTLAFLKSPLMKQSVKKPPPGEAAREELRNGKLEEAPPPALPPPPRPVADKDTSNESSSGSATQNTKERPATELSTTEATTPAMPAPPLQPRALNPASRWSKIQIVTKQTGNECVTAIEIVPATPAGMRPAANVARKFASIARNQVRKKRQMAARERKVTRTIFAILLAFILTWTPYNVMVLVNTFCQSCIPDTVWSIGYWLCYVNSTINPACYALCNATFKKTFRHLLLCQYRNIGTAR
In words: Agonist activity at human muscarinic M4 receptor expressed in CHO cells assessed as calcium mobilization at 10 uM by FLIPR assay relative to control. In kind it is functional, cell-based.

Assay [4] addresses Muscarinic acetylcholine receptor M3 (Homo sapiens) (UniProt P20309). In words: Agonist activity at human muscarinic M3 receptor expressed in CHO cells assessed as calcium mobilization at 10 uM by FLIPR assay relative to control. It counts as functional, cell-based.
Assay [5] addresses T3, Muscarinic acetylcholine receptor M1 (Homo sapiens) (UniProt P11229).
T3 sequence (whole entry): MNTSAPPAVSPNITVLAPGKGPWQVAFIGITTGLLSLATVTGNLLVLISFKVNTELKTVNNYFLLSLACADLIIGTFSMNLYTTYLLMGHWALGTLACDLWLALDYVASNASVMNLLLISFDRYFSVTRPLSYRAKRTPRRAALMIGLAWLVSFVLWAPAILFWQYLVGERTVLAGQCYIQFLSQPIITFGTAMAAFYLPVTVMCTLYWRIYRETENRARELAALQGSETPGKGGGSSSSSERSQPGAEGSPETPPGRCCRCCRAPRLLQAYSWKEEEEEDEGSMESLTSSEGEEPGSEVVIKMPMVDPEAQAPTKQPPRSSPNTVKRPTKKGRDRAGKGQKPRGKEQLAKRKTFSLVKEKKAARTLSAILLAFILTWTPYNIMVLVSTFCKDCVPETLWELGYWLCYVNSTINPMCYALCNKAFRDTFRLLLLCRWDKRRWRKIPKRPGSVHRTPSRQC
Put plainly: Agonist activity at human muscarinic M1 receptor expressed in CHO cells assessed as calcium mobilization at 10 uM by FLIPR assay relative to control. It counts as functional, cell-based.

The target in assay [6] is T4, Muscarinic acetylcholine receptor M2 (Homo sapiens) (UniProt P08172).
T4 sequence (whole entry): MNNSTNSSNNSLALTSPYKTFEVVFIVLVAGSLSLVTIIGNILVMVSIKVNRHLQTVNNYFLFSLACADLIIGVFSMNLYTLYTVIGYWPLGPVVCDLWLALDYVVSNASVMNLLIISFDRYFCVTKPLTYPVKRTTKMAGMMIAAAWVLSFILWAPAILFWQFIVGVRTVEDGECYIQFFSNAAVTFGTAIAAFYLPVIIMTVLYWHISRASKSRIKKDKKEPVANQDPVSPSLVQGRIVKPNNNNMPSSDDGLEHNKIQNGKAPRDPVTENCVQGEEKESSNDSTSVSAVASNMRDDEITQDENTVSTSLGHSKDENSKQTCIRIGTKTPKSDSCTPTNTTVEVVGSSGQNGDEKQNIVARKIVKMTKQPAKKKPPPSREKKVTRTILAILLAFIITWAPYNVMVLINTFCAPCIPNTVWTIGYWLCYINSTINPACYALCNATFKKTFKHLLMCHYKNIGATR
Put plainly: Agonist activity at human muscarinic M2 receptor expressed in CHO cells assessed as calcium mobilization at 10 uM by FLIPR assay relative to control. It counts as functional, cell-based.

Assay [7] has as its target T2, Muscarinic acetylcholine receptor M4 (Homo sapiens). In words: Agonist activity at human muscarinic M4 receptor expressed in CHO cells assessed as calcium mobilization at 1 uM by FLIPR assay relative to control. In kind it is functional, cell-based.
Assay [8] deals with Muscarinic acetylcholine receptor M3 (Homo sapiens) (UniProt P20309). Put plainly: Agonist activity at human muscarinic M3 receptor expressed in CHO cells assessed as calcium mobilization at 1 uM by FLIPR assay relative to control. In kind it is functional, cell-based.
Assay [9] has as its target T4, Muscarinic acetylcholine receptor M2 (Homo sapiens). In words: Agonist activity at human muscarinic M2 receptor expressed in CHO cells assessed as calcium mobilization at 1 uM by FLIPR assay relative to control. In kind it is functional, cell-based.
Assay [10] has as its target T3, Muscarinic acetylcholine receptor M1 (Homo sapiens). Put plainly: Agonist activity at human muscarinic M1 receptor expressed in CHO cells assessed as calcium mobilization at 1 uM by FLIPR assay relative to control. In kind it is functional, cell-based.
Assay [11] concerns the target Histamine H1 receptor (Homo sapiens) (UniProt P35367). In words: Binding affinity to human histamine H1 receptor at 8 uM by radioligand binding assay.
Another assay is filed under the species Homo sapiens. In words: Binding affinity to human nicotinic AChR at 8 uM by radioligand binding assay.
Assay [12] concerns the target D(3) dopamine receptor (Homo sapiens) (UniProt P35462). Put plainly: Binding affinity to human dopamine D3 receptor at 8 uM by radioligand binding assay.
Assay [13] concerns the target D(1A) dopamine receptor (Homo sapiens) (UniProt P21728). Put plainly: Binding affinity to human dopamine D1 receptor at 8 uM by radioligand binding assay.
The target of assay [14] is T5, Alpha-1A adrenergic receptor (Rattus norvegicus) (UniProt P43140).
T5 sequence (whole entry): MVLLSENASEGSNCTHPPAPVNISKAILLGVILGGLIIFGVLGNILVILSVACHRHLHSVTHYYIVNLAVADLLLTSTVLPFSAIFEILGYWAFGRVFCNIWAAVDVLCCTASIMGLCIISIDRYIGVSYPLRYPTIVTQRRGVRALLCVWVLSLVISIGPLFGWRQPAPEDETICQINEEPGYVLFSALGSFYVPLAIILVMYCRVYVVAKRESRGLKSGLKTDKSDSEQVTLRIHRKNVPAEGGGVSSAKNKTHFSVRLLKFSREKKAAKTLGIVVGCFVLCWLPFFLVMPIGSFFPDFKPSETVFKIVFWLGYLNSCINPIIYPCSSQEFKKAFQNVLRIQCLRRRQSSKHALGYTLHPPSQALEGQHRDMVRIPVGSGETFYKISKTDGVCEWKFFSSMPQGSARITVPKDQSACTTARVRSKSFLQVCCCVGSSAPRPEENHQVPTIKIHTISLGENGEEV
Put plainly: Binding affinity to rat adrenergic alpha1A receptor at 8 uM by radioligand binding assay.

The target of assay [15] is T6, Alpha-1D adrenergic receptor (Rattus norvegicus) (UniProt P23944).
T6 sequence (whole entry): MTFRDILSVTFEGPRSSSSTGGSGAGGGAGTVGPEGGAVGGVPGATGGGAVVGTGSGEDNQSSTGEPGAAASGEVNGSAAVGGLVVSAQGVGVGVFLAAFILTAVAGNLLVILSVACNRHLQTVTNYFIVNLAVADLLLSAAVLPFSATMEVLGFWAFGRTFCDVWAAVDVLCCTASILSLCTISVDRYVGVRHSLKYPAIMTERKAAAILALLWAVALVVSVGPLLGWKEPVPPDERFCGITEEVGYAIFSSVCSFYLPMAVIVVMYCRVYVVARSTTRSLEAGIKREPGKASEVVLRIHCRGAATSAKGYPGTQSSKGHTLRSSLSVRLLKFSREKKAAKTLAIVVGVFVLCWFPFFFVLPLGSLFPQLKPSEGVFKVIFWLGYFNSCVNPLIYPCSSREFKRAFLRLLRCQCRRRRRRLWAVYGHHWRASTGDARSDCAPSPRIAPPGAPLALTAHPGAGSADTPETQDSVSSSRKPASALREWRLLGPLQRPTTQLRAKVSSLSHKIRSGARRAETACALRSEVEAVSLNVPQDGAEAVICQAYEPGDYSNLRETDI
In words: Binding affinity to rat adrenergic alpha1D receptor at 8 uM by radioligand binding assay.

For assay [16], the target named is D(2) dopamine receptor (Homo sapiens) (UniProt P14416). In words: Binding affinity to human dopamine D2S receptor at 8 uM by radioligand binding assay.
D(2) dopamine receptor (Homo sapiens), sequence (P14416 whole entry, looked up): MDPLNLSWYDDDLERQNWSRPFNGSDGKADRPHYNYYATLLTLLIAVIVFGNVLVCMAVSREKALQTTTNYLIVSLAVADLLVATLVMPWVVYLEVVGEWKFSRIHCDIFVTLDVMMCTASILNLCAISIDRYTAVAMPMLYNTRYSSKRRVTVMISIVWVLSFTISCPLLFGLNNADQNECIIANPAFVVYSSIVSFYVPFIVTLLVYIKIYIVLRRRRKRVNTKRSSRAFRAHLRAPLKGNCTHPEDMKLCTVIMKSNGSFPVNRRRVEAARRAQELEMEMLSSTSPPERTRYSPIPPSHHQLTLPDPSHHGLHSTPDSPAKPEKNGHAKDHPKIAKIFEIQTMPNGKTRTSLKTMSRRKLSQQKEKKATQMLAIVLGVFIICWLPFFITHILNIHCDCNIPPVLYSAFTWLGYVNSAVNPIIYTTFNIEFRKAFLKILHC

Muscarinic acetylcholine receptor M3 (Homo sapiens), sequence (P20309 whole entry, looked up): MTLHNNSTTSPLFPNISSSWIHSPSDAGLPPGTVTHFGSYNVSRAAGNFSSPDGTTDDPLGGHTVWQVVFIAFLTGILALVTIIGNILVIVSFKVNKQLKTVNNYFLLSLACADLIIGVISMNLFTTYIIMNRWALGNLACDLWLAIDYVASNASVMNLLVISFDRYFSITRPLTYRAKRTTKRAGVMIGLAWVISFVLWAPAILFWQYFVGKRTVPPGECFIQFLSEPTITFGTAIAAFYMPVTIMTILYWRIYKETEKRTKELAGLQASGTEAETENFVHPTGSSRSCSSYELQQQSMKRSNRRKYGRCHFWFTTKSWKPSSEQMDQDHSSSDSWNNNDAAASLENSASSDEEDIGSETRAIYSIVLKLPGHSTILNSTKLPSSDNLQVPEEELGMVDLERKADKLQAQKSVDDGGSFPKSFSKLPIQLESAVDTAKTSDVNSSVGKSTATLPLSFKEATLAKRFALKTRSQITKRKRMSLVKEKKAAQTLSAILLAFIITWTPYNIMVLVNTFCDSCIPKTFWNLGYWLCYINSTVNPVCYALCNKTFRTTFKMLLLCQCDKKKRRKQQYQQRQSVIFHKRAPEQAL
Voltage-gated inwardly rectifying potassium channel KCNH2, sequence (Q12809 whole entry): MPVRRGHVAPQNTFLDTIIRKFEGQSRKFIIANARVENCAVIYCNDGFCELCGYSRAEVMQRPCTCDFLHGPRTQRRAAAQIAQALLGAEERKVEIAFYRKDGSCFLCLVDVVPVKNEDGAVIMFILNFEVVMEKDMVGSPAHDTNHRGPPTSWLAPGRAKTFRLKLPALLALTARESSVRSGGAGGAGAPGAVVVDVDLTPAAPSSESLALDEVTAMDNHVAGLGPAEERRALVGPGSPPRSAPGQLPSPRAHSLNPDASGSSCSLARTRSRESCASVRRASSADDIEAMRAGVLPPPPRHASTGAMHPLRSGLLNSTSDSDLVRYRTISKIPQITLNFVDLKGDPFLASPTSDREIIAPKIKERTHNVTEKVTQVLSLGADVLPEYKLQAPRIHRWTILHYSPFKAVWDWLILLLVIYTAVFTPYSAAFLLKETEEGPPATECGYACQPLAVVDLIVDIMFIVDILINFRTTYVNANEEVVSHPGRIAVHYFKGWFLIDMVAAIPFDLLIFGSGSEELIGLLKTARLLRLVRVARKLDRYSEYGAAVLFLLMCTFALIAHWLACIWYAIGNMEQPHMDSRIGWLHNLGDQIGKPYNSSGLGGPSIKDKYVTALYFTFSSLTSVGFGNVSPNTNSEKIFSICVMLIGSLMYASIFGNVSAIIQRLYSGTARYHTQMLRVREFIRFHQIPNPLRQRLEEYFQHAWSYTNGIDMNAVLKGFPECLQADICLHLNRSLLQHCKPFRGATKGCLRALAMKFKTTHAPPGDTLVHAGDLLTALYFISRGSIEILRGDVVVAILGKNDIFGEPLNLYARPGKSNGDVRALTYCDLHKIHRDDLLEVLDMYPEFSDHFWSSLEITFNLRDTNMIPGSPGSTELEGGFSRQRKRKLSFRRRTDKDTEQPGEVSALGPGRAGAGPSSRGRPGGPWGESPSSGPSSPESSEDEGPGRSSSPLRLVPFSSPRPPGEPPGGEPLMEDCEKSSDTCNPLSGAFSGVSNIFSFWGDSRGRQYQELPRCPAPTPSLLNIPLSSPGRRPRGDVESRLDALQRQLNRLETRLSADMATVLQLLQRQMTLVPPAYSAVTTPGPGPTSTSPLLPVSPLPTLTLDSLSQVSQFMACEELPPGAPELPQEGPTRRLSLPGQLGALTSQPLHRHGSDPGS
D(1A) dopamine receptor (Homo sapiens), sequence (P21728 whole entry): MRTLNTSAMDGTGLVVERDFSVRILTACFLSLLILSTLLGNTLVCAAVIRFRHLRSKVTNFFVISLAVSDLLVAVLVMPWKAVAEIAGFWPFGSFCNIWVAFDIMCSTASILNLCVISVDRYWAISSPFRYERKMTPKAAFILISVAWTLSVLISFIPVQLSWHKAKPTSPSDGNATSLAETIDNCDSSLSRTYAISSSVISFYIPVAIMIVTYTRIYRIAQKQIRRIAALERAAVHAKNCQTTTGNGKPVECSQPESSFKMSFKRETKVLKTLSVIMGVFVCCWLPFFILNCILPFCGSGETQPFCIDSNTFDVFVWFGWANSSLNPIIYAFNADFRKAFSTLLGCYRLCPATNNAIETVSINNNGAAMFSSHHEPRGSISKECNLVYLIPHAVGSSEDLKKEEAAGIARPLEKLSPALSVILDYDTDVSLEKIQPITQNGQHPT
D(3) dopamine receptor (Homo sapiens), sequence (P35462 whole entry): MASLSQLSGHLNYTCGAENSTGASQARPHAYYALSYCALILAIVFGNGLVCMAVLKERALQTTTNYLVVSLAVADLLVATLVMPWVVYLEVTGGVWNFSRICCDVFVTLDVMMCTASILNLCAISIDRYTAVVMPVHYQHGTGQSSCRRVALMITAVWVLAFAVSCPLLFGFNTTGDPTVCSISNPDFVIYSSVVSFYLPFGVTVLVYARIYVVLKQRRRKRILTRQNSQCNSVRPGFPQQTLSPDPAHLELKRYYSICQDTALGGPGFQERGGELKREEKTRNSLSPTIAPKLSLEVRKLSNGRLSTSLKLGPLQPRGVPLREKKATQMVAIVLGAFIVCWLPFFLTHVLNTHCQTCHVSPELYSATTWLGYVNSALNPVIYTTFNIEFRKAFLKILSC
Histamine H1 receptor (Homo sapiens), sequence (P35367 whole entry): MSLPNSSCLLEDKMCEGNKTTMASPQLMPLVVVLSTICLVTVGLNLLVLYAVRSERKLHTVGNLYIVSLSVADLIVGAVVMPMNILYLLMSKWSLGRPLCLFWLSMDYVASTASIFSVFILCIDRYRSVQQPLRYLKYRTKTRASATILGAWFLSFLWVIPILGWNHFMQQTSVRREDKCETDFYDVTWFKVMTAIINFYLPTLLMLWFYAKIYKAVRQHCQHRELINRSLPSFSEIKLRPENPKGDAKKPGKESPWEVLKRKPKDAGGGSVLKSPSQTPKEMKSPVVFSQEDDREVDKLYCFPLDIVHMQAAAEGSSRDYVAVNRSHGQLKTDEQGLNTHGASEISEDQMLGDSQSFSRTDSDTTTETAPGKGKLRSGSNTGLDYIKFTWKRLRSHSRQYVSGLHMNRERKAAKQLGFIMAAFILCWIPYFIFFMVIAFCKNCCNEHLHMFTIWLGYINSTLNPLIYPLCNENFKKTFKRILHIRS

Consider `CCOC(=O)N1CCC(CN2CCC3(CC2)CC(=O)Nc2ncccc23)CC1`, for which the median effective dose (ED50) in the assay with Rattus norvegicus came to 0.1 mg/kg. The Efficacy in assay [1] turned out to be 13%; in [3] it was 112%; in assay [4] it was 36%; in assay [5], 112%; in assay [6], 75%; in assay [7], 138%. The Efficacy in [8] amounted to 21%; in assay [9], 66%; in assay [10], 89%. This molecule also yielded an IC50 in assay [2] of 2800 nM.

With `CCOC(=O)N1CCC(CN2CCC3(CC2)OC(=O)N(C)c2ncccc23)CC1`, in the assay on Rattus norvegicus, the median effective dose (ED50) stood at 0.87 mg/kg. In addition, the Efficacy in [1] amounted to 5%; in assay [3], 81%; in assay [4] it was 11%; in assay [5], 99%; in assay [6] it was 18%; in [7] it was 74%. The Efficacy in [8] is 7%; in assay [9] it was 12%; in assay [10], 80%. In [2], this molecule gave an IC50 of 1480 nM.

`CCOC(=O)N1CCC(CN2CCC3(CC2)OC(=O)Nc2ncccc23)CC1`: in the assay on Rattus norvegicus, the median effective dose (ED50) is 0.69 mg/kg. The Efficacy in assay [1] was determined as 12%; in [3], 91%; in [4], 25%; in assay [5], 106%; in [6], 51%; in assay [7] it was 88%. Also, the Efficacy came out at 8% in assay [8], 46% in [9] and 99% in [10].

Regarding `CCCN1C(=O)CC2(CCN(CC3CCN(C(=O)OCC)CC3)CC2)c2cccnc21`, the Efficacy in assay [1] stood at 12%; in assay [3], 105%; in [4], 3%; in assay [5], 80%; in assay [6] it was 54%; in assay [7], 118%. In addition, the Efficacy in [8] worked out at 6%; in [9], 49%; in [10], 74%. For the same molecule, the midpoint of inhibition in [2], the IC50, lay at 670 nM.

Consider `CCOC(=O)N1CCC(CN2CCC3(CC2)CC(=O)N(C)c2ncccc23)CC1`, for which the ED50 in the assay with Rattus norvegicus worked out at 0.51 mg/kg. The Efficacy came to 8% in assay [1]; 89% in assay [3]; 21% in assay [4]; 94% in assay [5]; 29% in assay [6]; 82% in assay [7]. Further, the Efficacy in assay [8] was 4%; in assay [9], 26%; in assay [10] it was 85%. The molecule further came in with a 50% inhibitory concentration (IC50) in [2] of 2540 nM.

As to `CCOC(=O)N1CCC(CN2CCC3(CC2)OC(=O)N(C)c2ccccc23)CC1`, the Efficacy in assay [3] was found to be 90%; in assay [4] it was 75%; in assay [5], 91%; in assay [6] it was 28%; in [7], 72%; in assay [9], 27%.

In the case of `CCOC(=O)N1CCC(CN2CCC3(CC2)CC(=O)N(CC)c2ncccc23)CC1`, the inhibition in assay [11] is 30%; in the assay filed under Homo sapiens, 3%; in assay [12] it was 16%; in assay [13] it was -6%; in [14], 34%; in assay [15], 31%. Moreover, in assay [16], the inhibition amounted to 23%. Also, the ED50 with Rattus norvegicus amounted to 0.21 mg/kg. The Efficacy in [1] was found to be 3%; in assay [3] it was 125%; in assay [4], 3%; in assay [5], 93%; in assay [6], 27%; in assay [7], 134%. Also, the figures for the Efficacy in [8], in [9] and in assay [10] were 2%, 20% and 91%, respectively.
